According to patent publication US5206232A, “Fungicidal imidazole complexes” (priority 1990, dated 1993):

Tests used:
[1] = tested on: powdery mildew; test: Fungicidal activity against powdery mildew on inoculated cucumber plants (disease index); type: in vivo, Sphaerotheca fuliginia; conditions: cucumbers, letters in the cell = significance groups (P = 0.05)
Method: Cucumbers sensitive to powdery mildew were sprouted in trays and then transferred to pots of 16 cm diameter, two plants per pot. They were kept in a hot-house at 18° C.-25° C. at a relative humidity of 60%-70%. The cucumber plants were contaminated with powdery mildew collected from pumpkin leaves by passing the contaminated leaf over the leaves of the plants to be tested and the plants then sprayed with water. First treatment was with the first appearance of the disease, by spraying until dripping. All treatments were at a concentration of 0.03%, except for the commercial Myclobutanal (a systemic fungicide of Rohm and Haas Co.), where a concentration of 0.006% was used. The status of the disease was determined by three different people. The experiment was conducted in blocks, at random, with repetitions. Four blocks of four repetitions of ten treatments (total 160 pots) at three evaluation periods.

[2] = tested on: coffee berry disease; test: Activity against coffee berry disease (inhibition of sporulation on colonized branch sections); type: in vivo, Colletotrichum coffeanum; conditions: for Per Cent Active Ingredient for 80% Inhibition: 80% inhibition of sporulation, by linear regression of dose response curves, three days incubation
Method: The zinc complex of prochloraz was tested for its activity against coffee berry disease as follows:
Approximately 3.5 mm sections of colonized branches are washed in a solution of Teepol or similar wetting agent to remove any initial spore load. Sections are laid on moistened cellosine wadding in plastic boxes, 12 sections per box. Three boxes are sprayed with each concentration of the candidate material, closed and incubated for three days. After incubation the spores are removed by vigorous shaking of each of the 12 twigs in 10 ml water and are counted, using a haemocytometer slide. The sections of the branch are measured and their volume taken by displacement. The parameters measured were concentration of the formulation and expressed as percent active ingredient (A.I.) and percent inhibition of sporulation. The inhibition of sporulation was expressed in relation to the sporulation of unsprayed control and folpet as the standard fungicide. Each determination was done in triplicate and repeated at least three times. The dose response curves were analyzed by linear regression and the different formulations were compared at the 80% inhibition point.

[3] = tested on: crops; conditions: free, non-complexed prochloraz vs metal complexes; susceptible crops; cited from earlier work
[4] = 0.006% spray (commercial standard), key 0 = clean to 5 = over 50% sick
[5] = 0.03% spray, key 0 = clean, 1 = 10%-20% sick, 2 = 20%-30%, 3 = 30%-40%, 4 = 40%-50%, 5 = over 50% sick

Row | Compound | Per Cent Active Ingredient for 80% Inhibition [2] | Disease Index 14 Days After Treatment [1, 5] | Disease Index 7 Days After Treatment [1, 5] | other results
1 | CCCCC(C#N)(Cn1cncn1)c1ccc(Cl)cc1 (racemic) [Myclobutanol, reference compound] | – | – | – | Disease Index 7 Days After Treatment [1, 4]: 1.34; Disease Index 14 Days After Treatment [1, 4]: 0.81
2 | O=C1c2ccccc2C(=O)N1SC(Cl)(Cl)Cl [Folpet, reference compound] | 0.62 Per Cent Active Ingredient | – | – | –
3 | CCCN(CCOc1c(Cl)cc(Cl)cc1Cl)C(=O)n1ccnc1.CCCN(CCOc1c(Cl)cc(Cl)cc1Cl)C(=O)n1ccnc1.[Cl][Sn][Cl] [SnCl2 complex of Prochloraz, Bis-[1-{N-propyl-N-2-(2,4,6-trichlorophenoxy)-ethyl-carbamoyl}-imidazole]-tin(II) chloride complex] | – | 0.78 | – | –
4 | CCCN(CCOc1c(Cl)cc(Cl)cc1Cl)C(=O)n1ccnc1.CCCN(CCOc1c(Cl)cc(Cl)cc1Cl)C(=O)n1ccnc1.[Cl][Zn][Cl] [ZnCl2 complex of Prochloraz, Bis-[1-{N-propyl-N-2-(2,4,6-trichlorophenoxy)-ethyl-carbamoyl}-imidazole]-zinc chloride complex] | 0.09 Per Cent Active Ingredient | 0.94 | 1.63 | activity against coffee berry disease (in words) ([2]; especially as compared to known commercial metal complexes): very good activity; activity against coffee berry disease compared to commercial "Octave" ([2]; relative to Octave, at 80% inhibition point): more than two times greater
5 | CCCN(CCOc1c(Cl)cc(Cl)cc1Cl)C(=O)n1ccnc1 [prochloraz, 1-[N-propyl-N-2-(2,4,6-trichlorophenoxy)-ethyl-carbamoyl]-imidazole] | – | – | – | phytotoxicity [3]: phytotoxic to some crops
6 | Bis-[1-{N-propyl-N-2-(2,4,6-trichlorophenoxy)-ethyl-carbamoyl}-imidazole]-cobalt (II) chloride complex [CoCl2 complex of Prochloraz] | – | 1.38 | 2.06 | –
